According to article PMC7256847 (Polish Journal of Microbiology, 2019):
Like-named read-outs stand apart in the source and are kept apart here.

Assays:
alanine racemase (SiAlr) [1] = target: T1, alanine racemase (SiAlr) (Streptococcus iniae, UniProt A0A3L8GG59); test: enzyme inhibition assay with purified recombinant SiAlr; assay type: biochemical
T1 sequence (A0A3L8GG59 1-368): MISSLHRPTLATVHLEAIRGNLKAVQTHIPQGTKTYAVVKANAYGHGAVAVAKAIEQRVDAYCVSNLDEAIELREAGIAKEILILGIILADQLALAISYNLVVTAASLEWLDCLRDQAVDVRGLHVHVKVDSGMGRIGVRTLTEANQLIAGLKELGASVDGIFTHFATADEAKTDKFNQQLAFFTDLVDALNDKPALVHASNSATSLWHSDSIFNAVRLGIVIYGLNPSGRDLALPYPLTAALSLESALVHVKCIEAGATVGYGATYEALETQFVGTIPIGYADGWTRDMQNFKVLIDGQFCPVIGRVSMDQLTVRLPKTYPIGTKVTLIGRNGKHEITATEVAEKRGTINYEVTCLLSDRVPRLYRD

alanine racemase (SiAlr) [2] = target: T1, alanine racemase (SiAlr); test: as above; assay type: biochemical; remark: listed apart in the source
[3] = substrate: C[C@@H](N)C(=O)O; test: HPLC racemization kinetics; assay type: biochemical, Streptococcus iniae; details: pyridoxal […]'-phosphate (PLP)
[4] = substrate: C[C@H](N)C(=O)O; test: HPLC racemization kinetics; assay type: biochemical, Streptococcus iniae; details: pyridoxal […]'-phosphate (PLP)

N[C@@H]1CON=C1O [D-cycloserine]
IC50 (alanine racemase (SiAlr) [1]): 3.69 µM

O=C(O)Cc1cc(O)ccc1O [homogentisic acid]
IC50 (alanine racemase (SiAlr) [2]): 12.3 µM

Oc1ccc(O)cc1 [hydroquinone]
IC50 (alanine racemase (SiAlr) [2]): 11.4 µM

B1: alanine racemase (SiAlr) (Streptococcus iniae) (protein)
chain: MISSLHRPTLATVHLEAIRGNLKAVQTHIPQGTKTYAVVKANAYGHGAVAVAKAIEQRVDAYCVSNLDEAIELREAGIAKEILILGIILADQLALAISYNLVVTAASLEWLDCLRDQAVDVRGLHVHVKVDSGMGRIGVRTLTEANQLIAGLKELGASVDGIFTHFATADEAKTDKFNQQLAFFTDLVDALNDKPALVHASNSATSLWHSDSIFNAVRLGIVIYGLNPSGRDLALPYPLTAALSLESALVHVKCIEAGATVGYGATYEALETQFVGTIPIGYADGWTRDMQNFKVLIDGQFCPVIGRVSMDQLTVRLPKTYPIGTKVTLIGRNGKHEITATEVAEKRGTINYEVTCLLSDRVPRLYRD
Km [3]: 14.36 mM
Km [4]: 33.11 mM
